Columns and labels:
Assay type in all cases: functional
[1] = test system: SF-268; assay: Cytotoxicity against human SF268 cells assessed as cell growth at 10^-5 M after 48 hrs by SRB assay; conditions: SF-268, 48 h, read-out: Activity
[2] = test system: HOP-62; assay: Cytotoxicity against human HOP62 cells assessed as cell growth at 10^-5 M after 48 hrs by SRB assay; conditions: HOP-62, 48 h, read-out: Activity
[3] = test system: UO-31; assay: Cytotoxicity against human UO31 cells assessed as cell growth at 10^-5 M after 48 hrs by SRB assay; conditions: UO-31, 48 h, read-out: Activity
[4] = test system: SNB-75; assay: Cytotoxicity against human SNB75 cells assessed as cell growth at 10^-5 M after 48 hrs by SRB assay; conditions: SNB-75, 48 h, read-out: Activity
[5] = test system: U-251; assay: Cytotoxicity against human U251 cells assessed as cell growth at 10^-5 M after 48 hrs by SRB assay; conditions: U-251, 48 h, read-out: Activity
[6] = test system: OVCAR-8; assay: Cytotoxicity against human OVCAR8 cells assessed as cell growth at 10^-5 M after 48 hrs by SRB assay; conditions: OVCAR-8, 48 h, read-out: Activity
[7] = test system: HOP-92; assay: Cytotoxicity against human HOP92 cells assessed as cell growth at 10^-5 M after 48 hrs by SRB assay; conditions: HOP-92, 48 h, read-out: Activity
[8] = test system: PC-3; assay: Cytotoxicity against human PC3 cells assessed as cell growth at 10^-5 M after 48 hrs by SRB assay; conditions: PC-3, 48 h, read-out: Activity
[9] = test system: SR; assay: Cytotoxicity against human SR cells assessed as cell growth at 10^-5 M after 48 hrs by SRB assay; conditions: read-out: Activity
[10] = test system: MCF7; assay: Cytotoxicity against human MCF7 cells assessed as cell growth at 10^-5 M after 48 hrs by SRB assay; conditions: MCF7, 48 h, read-out: Activity
[11] = test system: MDA-MB-468; assay: Cytotoxicity against human MDA-MB-468 cells assessed as cell growth at 10^-5 M after 48 hrs by SRB assay; conditions: MDA-MB-468, 48 h, read-out: Activity
[12] = test system: SF-295; assay: Cytotoxicity against human SF295 cells after 48 hrs by SRB assay; conditions: SF-295, 48 h
[13] = test system: SK-OV-3; assay: Cytotoxicity against human SKOV3 cells after 48 hrs by SRB assay; conditions: SK-OV-3, 48 h
[14] = test system: K562; assay: Cytotoxicity against human K562 cells after 48 hrs by SRB assay; conditions: K562, 48 h
[15] = test system: TK-10; assay: Cytotoxicity against human TK10 cells after 48 hrs by SRB assay; conditions: TK-10, 48 h
[16] = test system: SF-268; assay: Cytotoxicity against human SF268 cells after 48 hrs by SRB assay; conditions: SF-268, 48 h
[17] = test system: OVCAR-4; assay: Cytotoxicity against human OVCAR4 cells after 48 hrs by SRB assay; conditions: OVCAR-4, 48 h
[18] = test system: SNB-75; assay: Cytotoxicity against human SNB75 cells after 48 hrs by SRB assay; conditions: SNB-75, 48 h
[19] = test system: RXF 393; assay: Cytotoxicity against human RXF393 cells after 48 hrs by SRB assay; conditions: RXF 393, 48 h
[20] = test system: RXF 393; assay: Cytotoxicity against human RXF393 cells assessed as cell growth at 10^-5 M after 48 hrs by SRB assay; conditions: RXF 393, 48 h, read-out: Activity
[21] = test system: U-251; assay: Cytotoxicity against human U251 cells after 48 hrs by SRB assay; conditions: U-251, 48 h
[22] = test system: MDA-MB-231; assay: Cytotoxicity against human MDA-MB-231/ATCC cells after 48 hrs by SRB assay; conditions: MDA-MB-231, 48 h
[23] = test system: Hs-578T; assay: Cytotoxicity against human Hs578T cells after 48 hrs by SRB assay
[24] = test system: 786-0; assay: Cytotoxicity against human 786-0 cells assessed as cell growth at 10^-5 M after 48 hrs by SRB assay; conditions: 786-0, 48 h, read-out: Activity
[25] = test system: SR; assay: Cytotoxicity against human SR cells after 48 hrs by SRB assay
[26] = test system: HOP-92; assay: Cytotoxicity against human HOP92 cells after 48 hrs by SRB assay; conditions: HOP-92, 48 h
[27] = test system: SF-539; assay: Cytotoxicity against human SF539 cells after 48 hrs by SRB assay; conditions: SF-539, 48 h
[28] = test system: Malme-3M; assay: Cytotoxicity against human MALME-3M cells after 48 hrs by SRB assay
[29] = test system: A498; assay: Cytotoxicity against human A498 cells assessed as cell growth at 10^-5 M after 48 hrs by SRB assay; conditions: A498, 48 h, read-out: Activity
[30] = test system: CCRF-CEM; assay: Cytotoxicity against human CCRF-CEM cells assessed as cell growth at 10^-5 M after 48 hrs by SRB assay; conditions: read-out: Activity
[31] = Cytotoxicity against human EKVX cells assessed as cell growth at 10^-5 M after 48 hrs by SRB assay; conditions: read-out: Activity
[32] = test system: NCI-H522; assay: Cytotoxicity against human NCI-H522 cells assessed as cell growth at 10^-5 M after 48 hrs by SRB assay; conditions: NCI-H522, 48 h, read-out: Activity
[33] = test system: IGROV-1; assay: Cytotoxicity against human IGROV1 cells assessed as cell growth at 10^-5 M after 48 hrs by SRB assay; conditions: IGROV-1, 48 h, read-out: Activity
[34] = test system: SF-539; assay: Cytotoxicity against human SF539 cells assessed as cell growth at 10^-5 M after 48 hrs by SRB assay; conditions: SF-539, 48 h, read-out: Activity
[35] = test system: K562; assay: Cytotoxicity against human K562 cells assessed as cell growth at 10^-5 M after 48 hrs by SRB assay; conditions: K562, 48 h, read-out: Activity
[36] = test system: HL-60(TB); assay: Cytotoxicity against human HL-60(TB) cells assessed as cell growth at 10^-5 M after 48 hrs by SRB assay; conditions: HL-60, 48 h, read-out: Activity
[37] = test system: UACC-62; assay: Cytotoxicity against human UACC62 cells assessed as cell growth at 10^-5 M after 48 hrs by SRB assay; conditions: UACC-62, 48 h, read-out: Activity
[38] = test system: RPMI-8226; assay: Cytotoxicity against human RPMI8226 cells assessed as cell growth at 10^-5 M after 48 hrs by SRB assay; conditions: RPMI-8226, 48 h, read-out: Activity
[39] = test system: T47D; assay: Cytotoxicity against human T47D cells assessed as cell growth at 10^-5 M after 48 hrs by SRB assay; conditions: read-out: Activity

## COc1ccccc1-n1nnc(C(=O)Nc2ncc(Cc3ccccc3)s2)c1C
[1]
  growth at 10 µM: 75.5%
[2]
  growth at 10 µM: 54.8%
[3]
  growth at 10 µM: 73.3%
[4]
  growth at 10 µM: 53.9%
[5]
  growth at 10 µM: 75.6%
[6]
  growth at 10 µM: 68%

## COc1ccc(NC(=O)c2nnn(-c3ccc(C)cc3)c2N)cc1
[7]
  growth at 10 µM: 69.4%
[8]
  growth at 10 µM: 74.3%

## CCc1c(C(=O)Nc2cccc(Cl)c2)nnn1-c1ccc2noc(-c3ccccc3)c2c1
[9]
  growth at 10 µM: 77.6%
[10]
  growth at 10 µM: 81.7%
[3]
  growth at 10 µM: 82.6%

## Nc1c(C(=O)c2c[nH]c3ccccc23)nnn1-c1ccccc1
[10]
  growth at 10 µM: 73.7%
[11]
  growth at 10 µM: 78.5%

## Cc1ccc(-n2nnc(C(=O)Nc3cc(Cl)ccc3Cl)c2N)cc1
[12]
  GI50: 5.01 µM
[12]; read-out: pTGI
  TGI: > 100 µM
[13]
  GI50: 2820 nM
[13]; read-out: pTGI
  TGI: > 100 µM
[14]
  GI50: 7.76 µM
[14]; read-out: pTGI
  TGI: > 100 µM
[15]
  GI50: 5.89 µM
[15]; read-out: pTGI
  TGI: > 100 µM
[16]
  GI50: 5.5 µM
[16]; read-out: pTGI
  TGI: > 100 µM
[17]
  GI50: 1620 nM
[17]; read-out: pTGI
  TGI: > 100 µM
[18]
  GI50: 1380 nM
[18]; read-out: pTGI (converted)
  TGI: 6.03 µM
[19]
  GI50: 3.47 µM
[19]; read-out: pTGI (converted)
  TGI: 50.1 µM
[20]
  growth at 10 µM: -13.4%
[7]
  growth at 10 µM: -3.42%
[21]
  GI50: 6.03 µM
[21]; read-out: pTGI
  TGI: > 100 µM
[22]
  GI50: 6.17 µM
[22]; read-out: pTGI
  TGI: > 100 µM
[23]
  GI50: 4.47 µM
[23]; read-out: pTGI
  TGI: > 100 µM
[3]
  growth at 10 µM: -7.62%
[4]
  growth at 10 µM: 1.32%
[24]
  growth at 10 µM: 2.96%
[25]
  GI50: 2510 nM
[25]; read-out: pTGI (converted)
  TGI: 60.3 µM
[26]
  GI50: 589 nM
[26]; read-out: pTGI (converted)
  TGI: 5.89 µM
[27]
  GI50: 4.27 µM
[27]; read-out: pTGI
  TGI: > 100 µM
[28]
  GI50: 2450 nM
[28]; read-out: pTGI
  TGI: > 100 µM

## Cc1cccc(C)c1NC(=O)c1nnn(-c2ccc(F)cc2)c1N
[9]
  growth at 10 µM: 66.7%
[7]
  growth at 10 µM: 76.8%
[29]
  growth at 10 µM: 78.7%
[30]
  growth at 10 µM: 64%
[31]
  growth at 10 µM: 75.9%

## COc1cccc(NC(=O)c2nnn(-c3ccc4noc(-c5ccc(Cl)cc5)c4c3)c2C)c1
[32]
  growth at 10 µM: 62%
[7]
  growth at 10 µM: 61.5%
[33]
  growth at 10 µM: 49.9%
[34]
  growth at 10 µM: 54.1%
[4]
  growth at 10 µM: 46.6%
[11]
  growth at 10 µM: 56.6%

## COc1ccc(NC(=O)c2nnn(-c3cccc(C(F)(F)F)c3)c2N)c(OC)c1
[7]
  growth at 10 µM: 77.3%
[35]
  growth at 10 µM: 71.7%
[36]
  growth at 10 µM: 78.4%

## Cc1ccc(-n2nnc(C(=O)Nc3ncc(Cc4cccc(Cl)c4)s3)c2C)cc1
[37]
  growth at 10 µM: 76.6%
[38]
  growth at 10 µM: 62.7%
[3]
  growth at 10 µM: 70.8%
[30]
  growth at 10 µM: 63.3%
[31]
  growth at 10 µM: 74.9%

## CCc1nnc(NC(=O)c2nnn(-c3ccc(C)cc3)c2N)s1
[7]
  growth at 10 µM: 71.5%
[39]
  growth at 10 µM: 77.4%
[4]
  growth at 10 µM: 76.2%

## Cc1cc(C)cc(-n2nnc(C(=O)NC(C)C)c2N)c1
[9]
  growth at 10 µM: 83.6%
[10]
  growth at 10 µM: 83.3%
[34]
  growth at 10 µM: 78.9%
